# Reference: ChEMBL document CHEMBL1201862, “PubChem BioAssay data set” (2004)
# The source made the active and inactive calls.
# Legend:
# Cytochrome P450 2C9 = Cytochrome P450 2C9 (Homo sapiens, UniProt P11712)
# [1] = NIH3T3 cell viability loss – ATP luminescence, mouse fibroblasts, counter-screen, dose response (AID 2010); assay type: functional, cell-based;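 also: cells exposed to compound for about 90 hours before reading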
# [2] = Trypanosoma cruzi growth suppression in host cells – NIH3T3 host cells, beta-gal luminescence, confirmation (AID 2044); assay type: functional, cell-based;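 also: intracellular parasites grown in NIH/3T3 mouse fibroblasts as host cells; luminescent beta-galactosidase reporter signal from transgenic T. cruzi replicating inside host cells; inhibitors lower the luminescence signal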
# Cytochrome P450 1A2 = target: T1, Cytochrome P450 1A2 (Homo sapiens, UniProt P05177);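 also: PubChem cytochrome P450 panel assay, CYP1A2 panel member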
# T1 sequence (P05177 whole entry): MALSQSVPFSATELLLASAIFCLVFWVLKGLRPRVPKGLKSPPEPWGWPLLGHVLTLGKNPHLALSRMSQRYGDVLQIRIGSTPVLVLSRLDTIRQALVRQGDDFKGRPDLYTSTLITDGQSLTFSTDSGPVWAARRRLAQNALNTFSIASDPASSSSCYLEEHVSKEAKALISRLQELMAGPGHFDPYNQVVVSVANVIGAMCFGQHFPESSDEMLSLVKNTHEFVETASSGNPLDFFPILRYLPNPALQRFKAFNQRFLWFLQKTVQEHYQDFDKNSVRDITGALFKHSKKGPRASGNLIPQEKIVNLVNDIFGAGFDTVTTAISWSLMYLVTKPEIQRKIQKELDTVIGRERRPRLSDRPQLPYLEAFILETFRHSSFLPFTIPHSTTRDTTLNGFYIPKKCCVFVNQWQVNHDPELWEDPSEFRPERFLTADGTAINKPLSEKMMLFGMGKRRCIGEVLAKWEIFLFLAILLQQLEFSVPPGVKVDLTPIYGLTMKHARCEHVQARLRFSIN
# Cytochrome P450 3A4 = Cytochrome P450 3A4 (Homo sapiens, UniProt P08684);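 also: CYP3A4 tested as one member of a cytochrome P450 panel screen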
# [3] = target: T2, Corticotropin-releasing factor receptor 2/Corticotropin-releasing factor-binding protein (Homo sapiens, UniProt P24387+Q13324); assay: activators of CRF receptor 2 with binding protein – uHTS hits, confirmation (AID 602473); assay type: functional; details: read-out: EC50_Mean
# T2 sequence (Q13324 whole entry): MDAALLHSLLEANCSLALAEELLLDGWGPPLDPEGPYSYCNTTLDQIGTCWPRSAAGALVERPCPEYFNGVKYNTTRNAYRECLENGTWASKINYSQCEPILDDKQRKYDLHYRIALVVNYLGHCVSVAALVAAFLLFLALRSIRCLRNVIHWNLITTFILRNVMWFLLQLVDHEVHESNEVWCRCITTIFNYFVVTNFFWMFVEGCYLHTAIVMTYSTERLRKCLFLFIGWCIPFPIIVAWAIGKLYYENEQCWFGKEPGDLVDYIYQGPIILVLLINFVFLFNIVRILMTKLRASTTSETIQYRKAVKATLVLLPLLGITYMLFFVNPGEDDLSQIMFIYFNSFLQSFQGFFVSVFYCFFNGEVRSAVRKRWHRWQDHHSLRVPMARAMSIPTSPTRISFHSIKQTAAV
# T2 sequence (P24387 whole entry): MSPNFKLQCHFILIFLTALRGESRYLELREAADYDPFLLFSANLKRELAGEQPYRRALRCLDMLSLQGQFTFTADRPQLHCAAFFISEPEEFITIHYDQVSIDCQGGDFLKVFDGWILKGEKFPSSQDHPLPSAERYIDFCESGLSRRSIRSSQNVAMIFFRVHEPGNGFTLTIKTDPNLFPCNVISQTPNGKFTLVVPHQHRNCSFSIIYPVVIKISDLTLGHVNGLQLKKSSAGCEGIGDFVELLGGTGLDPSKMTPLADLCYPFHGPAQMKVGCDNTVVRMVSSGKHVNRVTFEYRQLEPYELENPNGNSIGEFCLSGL
# [4] = Luminescence Cell-Based Dose Response HTS to Identify Activators of Luciferase Translation or Activity in H4 […] Cells. [Related pubchem assays: 1829 (Project Summary), 1814 (Primary HTS)]; assay type: functional
# H4 = assay: Luminescence Cell-Based Dose Response HTS to Identify Activators of 5'UTR Stem-Loop Driven Prion Protein mRNA Translation in H4 Neuroglioblastoma Cells. [Related pubchem assays: 1829 (Project Summary), 1814 (Primary HTS)]; assay type: functional; details: Homo sapiens
# cells = assay type: functional
# Cytochrome P450 2C9, sequence (P11712 whole entry): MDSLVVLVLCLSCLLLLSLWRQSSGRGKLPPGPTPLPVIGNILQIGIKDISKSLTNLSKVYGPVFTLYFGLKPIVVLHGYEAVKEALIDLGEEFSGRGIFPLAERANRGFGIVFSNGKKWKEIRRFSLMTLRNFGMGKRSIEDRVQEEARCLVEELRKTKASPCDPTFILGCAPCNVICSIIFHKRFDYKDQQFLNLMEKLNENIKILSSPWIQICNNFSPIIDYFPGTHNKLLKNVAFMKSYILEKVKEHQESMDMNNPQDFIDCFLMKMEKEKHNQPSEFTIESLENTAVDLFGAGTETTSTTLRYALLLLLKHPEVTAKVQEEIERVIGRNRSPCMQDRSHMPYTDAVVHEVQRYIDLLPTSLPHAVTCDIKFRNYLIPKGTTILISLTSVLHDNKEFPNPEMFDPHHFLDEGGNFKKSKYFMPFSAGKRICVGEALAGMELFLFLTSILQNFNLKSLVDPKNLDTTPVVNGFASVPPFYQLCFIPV
# Cytochrome P450 3A4, sequence (P08684 whole entry): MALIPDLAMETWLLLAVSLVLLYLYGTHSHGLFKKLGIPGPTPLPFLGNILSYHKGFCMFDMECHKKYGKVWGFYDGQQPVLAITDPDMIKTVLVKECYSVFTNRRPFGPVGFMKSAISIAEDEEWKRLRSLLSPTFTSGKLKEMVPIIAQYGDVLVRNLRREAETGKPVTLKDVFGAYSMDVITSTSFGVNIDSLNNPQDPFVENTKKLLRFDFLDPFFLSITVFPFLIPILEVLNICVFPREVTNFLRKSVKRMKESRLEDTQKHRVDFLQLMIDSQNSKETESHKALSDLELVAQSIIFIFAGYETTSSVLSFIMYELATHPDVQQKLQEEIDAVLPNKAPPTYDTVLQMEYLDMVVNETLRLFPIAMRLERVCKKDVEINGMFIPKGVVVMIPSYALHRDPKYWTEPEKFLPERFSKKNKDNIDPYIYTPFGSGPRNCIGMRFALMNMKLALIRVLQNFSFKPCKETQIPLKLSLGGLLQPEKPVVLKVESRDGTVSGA
smiles,measurement,setting,value
CC(C)=CC(=O)OCC(=O)Nc1ncc(Cl)c(C)c1Cl,AC50,Cytochrome P450 2C9,0.0631 µM (inconclusive)
O=C1CCCN1CC(CN1CCOCC1)Sc1nnnn1-c1ccccc1 (stereo not given),AC50,Cytochrome P450 2C9,6.31 µM (inconclusive)
CCOC(=O)c1c(NC(=O)Cn2cnc([N+](=O)[O-])n2)sc(C)c1C,EC50,[1],> 30 µM (not active)
same,EC50,[2],191 nM (active)
Cn1c(=O)c(-c2cc(F)cc(F)c2)nc2cnc(N3CCOCC3)nc21,AC50,Cytochrome P450 1A2,5.01 µM (inconclusive)
O=c1c2ccccc2nc(SCc2ccccc2Cl)n1Cc1ccccc1,AC50,Cytochrome P450 3A4,15.8 µM (inconclusive)
O=C(NCc1ccccc1)C12CN(Cc3ccccc3)CC1C(c1cccc([N+](=O)[O-])c1)=NO2 (stereo not given),AC50,Cytochrome P450 1A2,15.8 µM (inconclusive)
c1nc(NCCN2CCOCC2)c2cc(-c3ccoc3)ccc2n1,AC50,Cytochrome P450 3A4,15.8 µM (inconclusive)
CCCCCCc1cc2cc(C(=O)Nc3ccccc3OC)c(=O)oc2cc1O,EC50,[3],1.97 µM (active)
CO[C@@H]1COC(=O)C/C=C\[C@H](C)COC(=O)[C@H](Cc2ccccc2)NC(=O)C/C=C\[C@H]1C,AC50,Cytochrome P450 3A4,6.31 µM (inconclusive)
CC1CCN(c2cc(N3CCC(C)CC3)c([N+](=O)[O-])cc2/C=C(\C#N)c2nn(-c3ccccc3)c(N)c2C#N)CC1,AC50,Cytochrome P450 3A4,3.98 µM (inconclusive)
COc1ccc(-n2c(=O)cnc3cnc(N4CCNCC4)nc32)cc1,AC50,Cytochrome P450 2C9,39.8 µM (inconclusive)
COC(=O)[C@@H]1CC[C@H](C)[C@@H](c2ccc(C)cc2)N1C(=O)c1ccc(/C=N\O[C@@H]2O[C@H](COC(C)=O)[C@H](OC(C)=O)[C@H](OC(C)=O)[C@H]2OC(C)=O)cc1,AC50,Cytochrome P450 2C9,1.58 µM (inconclusive)
Cc1cccc(-c2nsc(SCC(=O)N3CCCC3)n2)c1,EC50,[4],104 nM (active)
same,EC50,H4,217 nM (active)
Cc1ccc(C(C)C)cc1OCC(=O)Nc1ccc(N2CCCCC2)cc1,EC50,[1],> 16 µM (not active)
same,EC50,[2],2030 nM (active)
O=C(CSc1nc2ccccc2c(=O)n1Cc1ccccc1)NCc1ccco1,AC50,Cytochrome P450 1A2,1.41 µM (inconclusive)
same,AC50,Cytochrome P450 3A4,39.8 µM (inconclusive)
COCCn1c(=O)c(-c2ccccc2)nc2cnc(Oc3cccc(Cl)c3)nc21,AC50,Cytochrome P450 3A4,20 µM (inconclusive)
COc1ccc(-n2c(=O)c(-c3cccs3)nc3cnc(Oc4ccccc4)nc32)cc1,AC50,Cytochrome P450 2C9,12.6 µM (inconclusive)
CN1Cc2cccc3c2C(Cc2ccccc2S3)C1 (stereo not given),EC50,[1],> 30 µM (not active)
same,EC50,[2],451 nM (active)
COC(=O)[C@@H]1CC[C@H](C)[C@@H](c2ccc(C)cc2)N1C(=O)c1ccc(/C=N\O[C@@H](C)CN2CCCCc3nc(C)c(C)cc32)cc1,AC50,Cytochrome P450 2C9,3.16 µM (inconclusive)
same,AC50,Cytochrome P450 3A4,3.16 µM (inconclusive)
CC(=O)c1sc2nc(-c3ccccc3)cc(C)c2c1N,EC50,[1],> 60 µM (not active)
same,EC50,[2],638 nM (active)
CSc1cccc(CN2CCCC(CO)(Cc3cccc(Cl)c3)C2)c1 (stereo not given),EC50,[1],> 30 µM (not active)
same,EC50,[2],514 nM (active)
COC[C@H]1OC(=O)c2coc3c2[C@@]1(C)C1=C(C3=O)[C@H]2CCC(=O)[C@@]2(C)C[C@H]1OC(C)=O,AC50,Cytochrome P450 1A2,31.6 µM (inconclusive)
same,AC50,Cytochrome P450 3A4,7.94 µM (inconclusive)
O=C(Nc1ccc(OC(=O)c2cccnc2)cc1)c1cccnc1,AC50,Cytochrome P450 3A4,12.6 µM (inconclusive)
Cc1cc(C)n(-c2cc(N3CCN(C(=O)c4ccc(C(C)(C)C)cc4)CC3)ccc2[N+](=O)[O-])n1,AC50,Cytochrome P450 3A4,35.5 µM (inconclusive)
Cn1c(=O)c(Oc2ccc(F)cc2)c(O)c2ccccc21,IC50,cells,1.87 µM (active)
CS(=O)(=O)N(CC(=O)Nc1cccc(F)c1)c1cccc([N+](=O)[O-])c1,AC50,Cytochrome P450 3A4,17.8 µM (inconclusive)
CCOc1cc(CNCCc2ccc(S(N)(=O)=O)cc2)cc(Cl)c1OCc1ccccc1,EC50,[1],> 60 µM (not active)
same,EC50,[2],373 nM (active)
COc1cccc(NC(=S)N(Cc2ccc(C)cc2)Cc2ccccn2)c1,EC50,[1],> 60 µM (not active)
same,EC50,[2],764 nM (active)
Cc1nc2cnc(Oc3ccccc3)nc2n(CCc2ccccc2)c1=O,AC50,Cytochrome P450 1A2,3.16 µM (inconclusive)
same,AC50,Cytochrome P450 3A4,20 µM (inconclusive)
O=C(Nc1ccccc1)[C@@]12C[C@@H]1/C(=N/O)c1ccccc1O2,AC50,Cytochrome P450 2C9,20 µM (inconclusive)
O=S(=O)(c1ccccc1)N1CCC[C@@]2(CCN(Cc3nccs3)C2)C1,AC50,Cytochrome P450 2C9,31.6 µM (inconclusive)
CN1CCN(CC(O)c2ccccc2)CC1 (stereo not given),EC50,[1],31.2 µM (active)
same,EC50,[2],934 nM (active)
CCOC(=O)c1cc(CC)sc1NC(=O)C(c1ccccc1)c1ccccc1,AC50,Cytochrome P450 3A4,11.2 µM (inconclusive)
Cc1ccc(C2=NN(C)c3nc4ccccc4n3C2)cc1,IC50,cells,8.22 µM (active)
COC(=O)C1CC(=O)N(c2ccc(OCc3ccccc3Cl)cc2)C1 (stereo not given),IC50,cells,2.2 µM (active)
CN1CCC(NC(=O)Nc2ccc(Br)cc2)CC1,EC50,[1],> 60 µM (not active)
same,EC50,[2],188 nM (active)
CC/C=C\CC[C@H](OC(=O)c1ccc(Br)cc1)C1=CCCCC1=O,AC50,Cytochrome P450 2C9,3.16 µM (inconclusive)
same,AC50,Cytochrome P450 3A4,3.98 µM (inconclusive)
Cc1ccc(C2=Nc3ccccc3S[C@@H](c3cccc([N+](=O)[O-])c3)C2)cc1,AC50,Cytochrome P450 1A2,2 µM (inconclusive)
COc1cc(-c2nc(-c3cc([N+](=O)[O-])ccc3C)c(-c3ccccc3)[nH]2)cc(OC)c1OC,EC50,[1],> 60 µM (not active)
same,EC50,[2],561 nM (active)
CCN1CCc2c(sc(NC(=O)c3ccc(S(=O)(=O)N(CC)c4ccccc4)cc3)c2C(N)=O)C1,EC50,[3],4.85 µM (active)
C[C@@H]1C[C@H]2[C@H]3C[C@@H](F)C4=CC(=O)C=C[C@]4(C)[C@@]3(Cl)[C@@H](O)C[C@@]2(C)[C@@H]1C(=O)COC(=O)C(C)(C)C,AC50,Cytochrome P450 3A4,0.398 µM (inconclusive)
O=C(N/N=C1/C[C@@H](O)[C@@H](O)[C@@H]2[C@H]3C(=O)N(c4ccc(F)cc4F)C(=O)[C@@H]3CC[C@@H]12)OCc1ccccc1,AC50,Cytochrome P450 3A4,3.98 µM (inconclusive)
C=CCCCCCCCCC(=O)Nc1cnc(O)nc1O,AC50,Cytochrome P450 3A4,10 µM (inconclusive)
Cc1c(Cl)cccc1NC(=O)C(=O)NNC(=O)c1ccccc1F,IC50,cells,15 µM (active)
Cc1nc2cnc(N(C)C)nc2n(C)c1=O,AC50,Cytochrome P450 3A4,15.8 µM (inconclusive)
O=C(NC1CC1)c1cccc2c1C(=O)c1ccc(N3CCC(Cc4ccccc4)CC3)cc1S2(=O)=O,EC50,[3],7.05 µM (active)
Cc1noc(C)c1C(=O)N1CCC2(CCN(C(=O)NC(C)C)CC2)CC1,AC50,Cytochrome P450 1A2,5.01 µM (inconclusive)
Cc1ccc(CSc2nnc([C@@H]3CCCN3)o2)cc1,AC50,Cytochrome P450 2C9,10 µM (inconclusive)
same,AC50,Cytochrome P450 3A4,3.55 µM (inconclusive)
Cc1ccc(NC(=O)CO/N=C/c2ccc(N(C)C)cc2)cc1,IC50,cells,> 50 µM (active)
COc1ccc2nc(SCC(=O)Nc3ccc4c(c3)OCCO4)[nH]c2c1,AC50,Cytochrome P450 3A4,6.31 µM (inconclusive)
C=C1[C@@H](O)C2C=CC[C@H](C)C(=O)[C@@](C)(O)C=C[C@@H](OC(C)=O)[C@@]23C(=O)N[C@H](Cc2ccccc2)[C@@H]3[C@@H]1C (stereo not given in full),AC50,Cytochrome P450 2C9,31.6 µM (inconclusive)
same,AC50,Cytochrome P450 3A4,15.8 µM (inconclusive)
O=C(COc1ccc2ccccc2c1)N/N=C/c1ccccn1,IC50,cells,> 50 µM (active)
Cc1ccc(CN2CCN(/N=C/c3ccc(Cl)c([N+](=O)[O-])c3)CC2)cc1,EC50,[1],> 60 µM (not active)
same,EC50,[2],1310 nM (active)
COc1ccccc1CNc1ncnc2ccc(-c3ccc(N(C)C)cc3)cc12,AC50,Cytochrome P450 2C9,0.631 µM (inconclusive)
Cc1nnc2ccc(-c3cccc(C(F)(F)F)c3)nn12 [CI-218872],AC50,Cytochrome P450 3A4,31.6 µM (inconclusive)
c1ccc(C2CC2)c(OCC2=NCCN2)c1 [CIRAZOLINE],AC50,Cytochrome P450 1A2,15.8 µM (inconclusive)
